{
  "source": "patent US12498382B2",
  "about": "“Biomarkers for vitiligo” (INCYTE CORPORATION, priority 2019, dated 2025)",
  "test_system": "HaCaT cells",
  "experiment": "Concentrations of inflammatory mediators produced by HaCaT cells stimulated with TNFα and IFNγ in presence/absence of JAK inhibitors (ProCarta)",
  "type": "cell-based, human",
  "how_it_was_run": "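HaCaT cells pre-treated 15 min with JAK inhibitors, then stimulated with TNFα and IFNγ (25 ng/mL each) at drug finals of 25, 50, 100 and 200 nM for 24 h at 37 °C. Secreted mediators in media measured by Luminex bead immunoassay; concentrations (pg/mL) from antigen standard curves.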",
  "key": {"[1]": {"conditions": "TNFα+IFNγ 25 ng/mL each, drug conc. 3rd of 4 rows (cell not shown; prob. 100 nM)"}, "[2]": {"conditions": "TNFα+IFNγ 25 ng/mL each, drug conc. 4th of 4 rows (cell not shown; prob. 200 nM)"}, "[3]": {"conditions": "drug present, concentration not given"}},
  "data": [
    {"molecule": "C[C@@H](O)c1nc2cnc3ccsc3c2n1[C@H]1CC[C@H](CC#N)OC1", "note": "[Cpd D, ((2R,5S)-5-{2-[(1R)-1-hydroxyethyl]-1H-imidazo[4,5-d]thieno[3,2-b]pyridin-1-yl}tetrahydro-2H-pyran-2-yl)acetonitrile]", "values": [
      {"measurement": "IL21 concentration", "setting": "[1]", "result": "2.64 ± 0.24", "unit": "pg/mL"},
      {"measurement": "IL22 concentration", "setting": "[1]", "result": "8.21 ± 0.69", "unit": "pg/mL"},
      {"measurement": "IL23 concentration", "setting": "[1]", "result": "7.43 ± 0", "unit": "pg/mL"},
      {"measurement": "IL27 concentration", "setting": "[1]", "result": "5.92 ± 0.88", "unit": "pg/mL"},
      {"measurement": "IL31 concentration", "setting": "[1]", "result": "4.14 ± 0.48", "unit": "pg/mL"},
      {"measurement": "IP-10/CXCL10 concentration", "setting": "[1]", "result": "4100.26 ± 502.48", "unit": "pg/mL"},
      {"measurement": "LIF concentration", "setting": "[1]", "result": "70.02 ± 3.89", "unit": "pg/mL"},
      {"measurement": "MCP1 concentration", "setting": "[1]", "result": "15200 ± 0", "unit": "pg/mL"},
      {"measurement": "MIP1 alpha concentration", "setting": "[1]", "result": "96.22 ± 3.58", "unit": "pg/mL"},
      {"measurement": "MIP1 beta concentration", "setting": "[1]", "result": "317.95 ± 8.1", "unit": "pg/mL"},
      {"measurement": "PDGF-BB concentration", "setting": "[1]", "result": "4.71 ± 0.23", "unit": "pg/mL"},
      {"measurement": "PIGF-1 concentration", "setting": "[1]", "result": "59.49 ± 3.52", "unit": "pg/mL"},
      {"measurement": "RANTES concentration", "setting": "[1]", "result": "241.39 ± 22.79", "unit": "pg/mL"},
      {"measurement": "SCF concentration", "setting": "[1]", "result": "4.29 ± 0.29", "unit": "pg/mL"},
      {"measurement": "SDF-1 alpha concentration", "setting": "[1]", "result": "3563.68 ± 157.35", "unit": "pg/mL"},
      {"measurement": "TNF alpha concentration", "setting": "[1]", "result": "10525.46 ± 1077.11", "unit": "pg/mL"},
      {"measurement": "TNF beta concentration", "setting": "[1]", "result": "4.47 ± 0.37", "unit": "pg/mL"},
      {"measurement": "VEGF-A concentration", "setting": "[1]", "result": "1346.72 ± 67.56", "unit": "pg/mL"},
      {"measurement": "VEGF-D concentration", "setting": "[1]", "result": "9.64 ± 0.91", "unit": "pg/mL"},
      {"measurement": "IFN gamma concentration", "setting": "[2]", "result": "26972.77 ± 4164.13", "unit": "pg/mL"},
      {"measurement": "IL1RA concentration", "setting": "[2]", "result": "5450.17 ± 388.11", "unit": "pg/mL"},
      {"measurement": "IL1 alpha concentration", "setting": "[2]", "result": "6.3 ± 0.35", "unit": "pg/mL"},
      {"measurement": "IL1 beta concentration", "setting": "[2]", "result": "8.81 ± 0.35", "unit": "pg/mL"},
      {"measurement": "IL2 concentration", "setting": "[2]", "result": "31.88 ± 1.61", "unit": "pg/mL"},
      {"measurement": "IL4 concentration", "setting": "[2]", "result": "8.19 ± 1.39", "unit": "pg/mL"},
      {"measurement": "IL5 concentration", "setting": "[2]", "result": "25.61 ± 1.98", "unit": "pg/mL"},
      {"measurement": "IL6 concentration", "setting": "[2]", "result": "646.2 ± 32.46", "unit": "pg/mL"},
      {"measurement": "IL7 concentration", "setting": "[2]", "result": "2.14 ± 0.12", "unit": "pg/mL"},
      {"measurement": "IL8 concentration", "setting": "[2]", "result": "2893.51 ± 190.51", "unit": "pg/mL"},
      {"measurement": "IL9 concentration", "setting": "[2]", "result": "4.44 ± 0.54", "unit": "pg/mL"},
      {"measurement": "IL10 concentration", "setting": "[2]", "result": "0.84 ± 0.08", "unit": "pg/mL"},
      {"measurement": "IL12p70 concentration", "setting": "[2]", "result": "1.7 ± 0.2", "unit": "pg/mL"},
      {"measurement": "IL13 concentration", "setting": "[2]", "result": "2.52 ± 0.42", "unit": "pg/mL"},
      {"measurement": "IL15 concentration", "setting": "[2]", "result": "3.37 ± 0.8", "unit": "pg/mL"},
      {"measurement": "IL17A concentration", "setting": "[2]", "result": "4.04 ± 0.49", "unit": "pg/mL"},
      {"measurement": "IL18 concentration", "setting": "[2]", "result": "155.77 ± 4.15", "unit": "pg/mL"},
      {"measurement": "IL21 concentration", "setting": "[2]", "result": "2.84 ± 0.04", "unit": "pg/mL"},
      {"measurement": "IL22 concentration", "setting": "[2]", "result": "8.39 ± 0.51", "unit": "pg/mL"},
      {"measurement": "IL23 concentration", "setting": "[2]", "result": "7.43 ± 0", "unit": "pg/mL"},
      {"measurement": "IL27 concentration", "setting": "[2]", "result": "8.3 ± 1.2", "unit": "pg/mL"},
      {"measurement": "IL31 concentration", "setting": "[2]", "result": "3.05 ± 0.38", "unit": "pg/mL"},
      {"measurement": "IP-10/CXCL10 concentration", "setting": "[2]", "result": "4407.56 ± 645.63", "unit": "pg/mL"},
      {"measurement": "LIF concentration", "setting": "[2]", "result": "67.62 ± 3.58", "unit": "pg/mL"},
      {"measurement": "MCP1 concentration", "setting": "[2]", "result": "18512.1 ± 3312.1", "unit": "pg/mL"},
      {"measurement": "MIP1 alpha concentration", "setting": "[2]", "result": "88.49 ± 5.06", "unit": "pg/mL"},
      {"measurement": "MIP1 beta concentration", "setting": "[2]", "result": "316.74 ± 9.29", "unit": "pg/mL"},
      {"measurement": "PDGF-BB concentration", "setting": "[2]", "result": "4.75 ± 0.16", "unit": "pg/mL"},
      {"measurement": "PIGF-1 concentration", "setting": "[2]", "result": "55.63 ± 3.23", "unit": "pg/mL"},
      {"measurement": "RANTES concentration", "setting": "[2]", "result": "238.51 ± 23.12", "unit": "pg/mL"},
      {"measurement": "SCF concentration", "setting": "[2]", "result": "4.07 ± 0.21", "unit": "pg/mL"},
      {"measurement": "SDF-1 alpha concentration", "setting": "[2]", "result": "3464.97 ± 155.2", "unit": "pg/mL"},
      {"measurement": "TNF alpha concentration", "setting": "[2]", "result": "9777.73 ± 966.87", "unit": "pg/mL"},
      {"measurement": "TNF beta concentration", "setting": "[2]", "result": "4.96 ± 0.56", "unit": "pg/mL"},
      {"measurement": "VEGF-A concentration", "setting": "[2]", "result": "1256.89 ± 60.57", "unit": "pg/mL"},
      {"measurement": "VEGF-D concentration", "setting": "[2]", "result": "8.03 ± 0.93", "unit": "pg/mL"},
      {"measurement": "IL1 alpha concentration", "setting": "[3]", "result": "0.26 ± 0.05", "unit": "pg/mL"},
      {"measurement": "IL1 beta concentration", "setting": "[3]", "result": "0.98 ± 0.12", "unit": "pg/mL"},
      {"measurement": "IL2 concentration", "setting": "[3]", "result": "2.4 ± 0.09", "unit": "pg/mL"},
      {"measurement": "IL4 concentration", "setting": "[3]", "result": "5.34 ± 0.89", "unit": "pg/mL"},
      {"measurement": "IL5 concentration", "setting": "[3]", "result": "2.88 ± 0.36", "unit": "pg/mL"},
      {"measurement": "IL6 concentration", "setting": "[3]", "result": "28.84 ± 1.89", "unit": "pg/mL"},
      {"measurement": "IL7 concentration", "setting": "[3]", "result": "3.44 ± 0.16", "unit": "pg/mL"},
      {"measurement": "IL8 concentration", "setting": "[3]", "result": "257.62 ± 7.07", "unit": "pg/mL"},
      {"measurement": "IL9 concentration", "setting": "[3]", "result": "3.98 ± 0.36", "unit": "pg/mL"},
      {"measurement": "IL10 concentration", "setting": "[3]", "result": "0.43 ± 0.11", "unit": "pg/mL"},
      {"measurement": "IL12p70 concentration", "setting": "[3]", "result": "2.15 ± 0.26", "unit": "pg/mL"},
      {"measurement": "IL13 concentration", "setting": "[3]", "result": "1.26 ± 0.15", "unit": "pg/mL"},
      {"measurement": "IL15 concentration", "setting": "[3]", "result": "3.2 ± 0.71", "unit": "pg/mL"},
      {"measurement": "IL17A concentration", "setting": "[3]", "result": "1.22 ± 0.2", "unit": "pg/mL"},
      {"measurement": "IL18 concentration", "setting": "[3]", "result": "6.54 ± 0.37", "unit": "pg/mL"},
      {"measurement": "IL21 concentration", "setting": "[3]", "result": "2.5 ± 0.3", "unit": "pg/mL"},
      {"measurement": "IL22 concentration", "setting": "[3]", "result": "8.08 ± 0.82", "unit": "pg/mL"},
      {"measurement": "IL23 concentration", "setting": "[3]", "result": "6.43 ± 1.28", "unit": "pg/mL"},
      {"measurement": "IL27 concentration", "setting": "[3]", "result": "11.9 ± 2.31", "unit": "pg/mL"},
      {"measurement": "IL31 concentration", "setting": "[3]", "result": "3.7 ± 0.06", "unit": "pg/mL"},
      {"measurement": "IP-10/CXCL10 concentration", "setting": "[3]", "result": "20.23 ± 0.48", "unit": "pg/mL"},
      {"measurement": "LIF concentration", "setting": "[3]", "result": "22.66 ± 0.82", "unit": "pg/mL"},
      {"measurement": "MCP1 concentration", "setting": "[3]", "result": "1306.83 ± 54.65", "unit": "pg/mL"},
      {"measurement": "MIP1 alpha concentration", "setting": "[3]", "result": "2.75 ± 0.26", "unit": "pg/mL"},
      {"measurement": "MIP1 beta concentration", "setting": "[3]", "result": "113.08 ± 4.82", "unit": "pg/mL"},
      {"measurement": "PDGF-BB concentration", "setting": "[3]", "result": "1.93 ± 0.18", "unit": "pg/mL"},
      {"measurement": "PIGF-1 concentration", "setting": "[3]", "result": "20.55 ± 1.16", "unit": "pg/mL"},
      {"measurement": "RANTES concentration", "setting": "[3]", "result": "10.17 ± 0.54", "unit": "pg/mL"},
      {"measurement": "SCF concentration", "setting": "[3]", "result": "1.91 ± 0.15", "unit": "pg/mL"},
      {"measurement": "SDF-1 alpha concentration", "setting": "[3]", "result": "990.69 ± 48.87", "unit": "pg/mL"},
      {"measurement": "TNF alpha concentration", "setting": "[3]", "result": "2.41 ± 0.7", "unit": "pg/mL"},
      {"measurement": "TNF beta concentration", "setting": "[3]", "result": "4.42 ± 0.57", "unit": "pg/mL"},
      {"measurement": "VEGF-A concentration", "setting": "[3]", "result": "598.11 ± 16.67", "unit": "pg/mL"},
      {"measurement": "VEGF-D concentration", "setting": "[3]", "result": "3.55 ± 0.66", "unit": "pg/mL"}
    ]}
  ]
}
